{
  "source": "paper PMC10385850",
  "about": "“Modified Hederagenin Derivatives Demonstrate Ex Vivo Anthelmintic Activity against Fasciola hepatica” (Pharmaceutics, 2023)",
  "key": {"[1]": {"test": "MTT cell viability assay on MDBK cells", "assay_type": "cell-based, bovine", "details": "bovine, MDBK cells (Madin–Darby bovine kidney); MDBK cells, MTT, 24 h exposure; read-out: CC50 with 95% CI on MDBK cells (cytotoxicity)", "procedure": "MTT cell viability assays were performed on Madin–Darby bovine kidney (MDBK cells) for the five selected hederagenin derivatives (MC014, MC035, MC042, MC055 and MC062) using final concentrations of 100 μM, 75 μM, 50 μM, 25 μM, 10 μM, 5 μM and 1 μM (in 1% DMSO). Negative (1% v/v Triton X-100, Sigma-Aldrich, UK) and positive (1% v/v DMSO or media only) controls were included. The protocol was followed as previously described. Absolute EC50 values were calculated from the corrected absorbance of replicates by non-linear regression, after log transformation of concentrations and data normalization (where DMSO values represents 0% inhibition and TX-100 values represent 100% inhibition) using GrapPad Prism 8."}, "[2]": {"test_system": "F. hepatica newly excysted juveniles (NEJs), Italian strain", "test": "Ex vivo screen against newly excysted juveniles (NEJs), phenotype and motility scoring", "assay_type": "cell-based, Fasciola hepatica", "details": "10 µM", "procedure,_shortened": "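Newly excysted juveniles of the Italian strain of F. hepatica were obtained by excysting metacercariae and exposed ex vivo to test compounds at 10 μM final concentration in 0.1% DMSO. Controls were 0.1% DMSO (negative) and 10 μM TCBZ in 0.1% DMSO (positive). Motility was scored from 1 (good/normal) to 5 (no movement), and ultrastructural phenotype changes were scored with an established matrix.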"}, "[3]": {"test_system": "wild strain adult F. hepatica", "test": "Ex vivo motility assay on adult liver flukes (wild strain)", "assay_type": "cell-based, Fasciola hepatica", "details": "40 µM", "procedure,_shortened": "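Wild-strain adult F. hepatica of unknown provenance (n = 4 per condition) were exposed ex vivo to 40 µM compound in 0.4% DMSO for 72 h. Motility was scored from 1 (normal) to 6 (no movement/dead).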"}, "[4]": {"test_system": "immature F. hepatica flukes (Italian strain)", "test": "Ex vivo motility assay on immature liver flukes (Italian strain), single concentration and dose response", "assay_type": "cell-based, Fasciola hepatica", "details": "40 µM"}, "[5]": {"test_system": "adult F. hepatica flukes (Italian strain)", "test": "Ex vivo dose response motility assay on adult liver flukes (Italian strain)", "assay_type": "cell-based, Fasciola hepatica", "procedure": "The collection, ex vivo culturing and screening of adult liver fluke (Italian strain; n = 3/condition) was previously described. Dose response assays (40 µM, 13.3 µM and 4.4 µM) were conducted for MC014, MC042, MC035, MC055 and MC062 with motility scores recorded at 24, 48 and 72 h (Table S6)."}, "F. hepatica": {"test_system": "F. hepatica", "design": "method as in PMID 4034744", "details": "cited from earlier work"}},
  "data": [
    {"smiles": "CN1CCN(C(=O)N[C@]23CCC(C)(C)CC2C2=CCC4[C@@]5(C)CC[C@@H]6OC(C)(C)OC[C@@]6(C)C5CC[C@@]4(C)[C@]2(C)CC3)CC1", "note": "(stereo partly drawn) [MC062, 4-Methyl-N-((4aR,6aR,6bS,8aS,14bR,16aS)-2,2,4a,6a,6b,11,11,14b-octamethyl-4a,5,6,6a, 6b,7,8,9,10,11, 12,12a,14,14a,14b,15,16,16a-octadecahydro-4H-piceno[3,4-d][1,3]dioxin-8a(4bH)-yl)piperazine-1-carboxamide]", "values": [
      {"measurement": "CC50 at 24 h", "setting": "[1]", "value": 13.7, "unit": "µM"},
      {"measurement": "Average phenotype of 25 NEJs with 95% CI, 24 hours", "setting": "[2]; 24 h, ultrastructure score 1 normal to 6 dead or dissolved", "value": "6.00 (6.0;6.0)"},
      {"measurement": "Average phenotype of 25 NEJs with 95% CI, 48 hours", "setting": "[2]; 48 h, ultrastructure score 1 normal to 6 dead or dissolved", "value": "6.00 (6.0;6.0)"},
      {"measurement": "Average phenotype of 25 NEJs with 95% CI, 72 hours", "setting": "[2]; 72 h, ultrastructure score 1 normal to 6 dead or dissolved", "value": "6.00 (6.0;6.0)"},
      {"measurement": "Activity against NEJs (first screen), in words", "setting": "[2]; 72 h co-culture", "value": "maximal alterations to both phenotype/ultrastructure and motility"},
      {"measurement": "Effect on wild strain adult fluke motility, in words", "setting": "[3]; 72 h", "value": "partial paralysis"},
      {"measurement": "Average motility of 4 parasites with 95% CI at 72 hour time point", "setting": "[3]; wild strain adult flukes, score 1 good/normal to 6 no movement or dead", "value": "5.00 (5.0;5.0)"},
      {"measurement": "Average motility of 4 parasites with 95% CI at 24 hour time point", "setting": "[4]; 24 h, immature flukes, score 1 normal to 5 no movement or death", "value": "5.00 (5.0;5.0)"},
      {"measurement": "Average motility of 4 parasites with 95% CI at 48 hour time point", "setting": "[4]; 48 h, immature flukes, score 1 to 5", "value": "5.00 (5.0;5.0)"},
      {"measurement": "Average motility of 4 parasites with 95% CI at 72 hour time point", "setting": "[4]; 72 h, immature flukes, score 1 to 5", "value": "5.00 (5.0;5.0)"},
      {"measurement": "Effect on immature fluke motility, in words", "setting": "[4]; by 72 h", "value": "paralyzed the assayed immature flukes"},
      {"measurement": "Average motility of 3 parasites treated with 4.4 µM, 24 hours", "setting": "[5]; 4.4 µM, 24 h, adult flukes Italian strain, score 1 to 6", "value": "1.00 (1.0; 1.0)"},
      {"measurement": "Average motility of 3 parasites treated with 4.4 µM, 48 hours", "setting": "[5]; 4.4 µM, 48 h, adult flukes Italian strain, score 1 to 6", "value": "1.00 (1.0; 1.0)"},
      {"measurement": "Average motility of 3 parasites treated with 13.3 µM, 24 hours", "setting": "[5]; 13.3 µM, 24 h, adult flukes Italian strain, score 1 to 6", "value": "1.00 (1.0; 1.0)"},
      {"measurement": "Average motility of 3 parasites treated with 13.3 µM, 48 hours", "setting": "[5]; 13.3 µM, 48 h, adult flukes Italian strain, score 1 to 6", "value": "1.66 (1.0; 2.3)"},
      {"measurement": "Average motility of 3 parasites treated with 13.3 µM, 72 hours", "setting": "[5]; 13.3 µM, 72 h, adult flukes Italian strain, score 1 to 6", "value": "5.00 (5.0; 5.0)"},
      {"measurement": "Average motility of 3 parasites treated with 40 µM, 24 hours", "setting": "[5]; 40 µM, 24 h, adult flukes Italian strain, score 1 to 6", "value": "3.00 (3.0;3.0)"},
      {"measurement": "Average motility of 3 parasites treated with 40 µM, 48 hours", "setting": "[5]; 40 µM, 48 h, adult flukes Italian strain, score 1 to 6", "value": "4.00 (4.0;4.0)"},
      {"measurement": "Average motility of 3 parasites treated with 40 µM, 72 hours", "setting": "[5]; 40 µM, 72 h, adult flukes Italian strain, score 1 to 6", "value": "5.00 (5.0;5.0)"},
      {"measurement": "Selectivity Index (SI) on Adult Flukes SI=CC50/EC50, 72 hour", "setting": "[5]; CC50 in MDBK cells (24 h) / EC50 adult flukes 72 h", "value": 2.43},
      {"measurement": "EC50", "setting": "[5]; Fasciola hepatica, adult flukes, motility, 72 h, read-out: EC50 with 95% CI on Adult Flukes (motility), 72 hour", "value": 5.61, "unit": "µM"},
      {"measurement": "Effect on adult fluke (Italian strain) movement, in words", "setting": "[5]; dose response, MC042 statement at 40 μM after 72 h", "value": "Decreased movement"}
    ]},
    {"smiles": "C[C@@H]1O[C@@H](O[C@H]2[C@H](O[C@H]3CC[C@@]4(C)[C@@H](CC[C@]5(C)[C@@H]4CC=C4[C@@H]6CC(C)(C)CC[C@]6(C(=O)O)CC[C@]45C)[C@]3(C)CO)OC[C@H](O)[C@@H]2O)[C@H](O)[C@H](O)[C@H]1O", "note": "[α-Hederin]", "values": [
      {"measurement": "Activity against F. hepatica, in words", "setting": "F. hepatica", "value": "lethal activity"}
    ]}
  ]
}
